In paper PMC6271415, “Synthesis and Docking Studies of 2,4,6-Trihydroxy-3-Geranylacetophenone Analogs as Potential Lipoxygenase Inhibitor” (Molecules, 2014):
Read-outs that look alike come from different tables or passages of the source.

Columns and labels:
soybean 15-LOX [1] = target: T1, soybean 15-LOX (Glycine max, UniProt P08170); assay: In vitro soybean 15-lipoxygenase inhibition assay (spectrophotometric, linoleic acid substrate); type: biochemical; conditions: for inhibition at 100 µg/mL: read-out: % Inhibition (100 μg/mL)
T1 construct: purchased
T1 sequence (P08170 1-839): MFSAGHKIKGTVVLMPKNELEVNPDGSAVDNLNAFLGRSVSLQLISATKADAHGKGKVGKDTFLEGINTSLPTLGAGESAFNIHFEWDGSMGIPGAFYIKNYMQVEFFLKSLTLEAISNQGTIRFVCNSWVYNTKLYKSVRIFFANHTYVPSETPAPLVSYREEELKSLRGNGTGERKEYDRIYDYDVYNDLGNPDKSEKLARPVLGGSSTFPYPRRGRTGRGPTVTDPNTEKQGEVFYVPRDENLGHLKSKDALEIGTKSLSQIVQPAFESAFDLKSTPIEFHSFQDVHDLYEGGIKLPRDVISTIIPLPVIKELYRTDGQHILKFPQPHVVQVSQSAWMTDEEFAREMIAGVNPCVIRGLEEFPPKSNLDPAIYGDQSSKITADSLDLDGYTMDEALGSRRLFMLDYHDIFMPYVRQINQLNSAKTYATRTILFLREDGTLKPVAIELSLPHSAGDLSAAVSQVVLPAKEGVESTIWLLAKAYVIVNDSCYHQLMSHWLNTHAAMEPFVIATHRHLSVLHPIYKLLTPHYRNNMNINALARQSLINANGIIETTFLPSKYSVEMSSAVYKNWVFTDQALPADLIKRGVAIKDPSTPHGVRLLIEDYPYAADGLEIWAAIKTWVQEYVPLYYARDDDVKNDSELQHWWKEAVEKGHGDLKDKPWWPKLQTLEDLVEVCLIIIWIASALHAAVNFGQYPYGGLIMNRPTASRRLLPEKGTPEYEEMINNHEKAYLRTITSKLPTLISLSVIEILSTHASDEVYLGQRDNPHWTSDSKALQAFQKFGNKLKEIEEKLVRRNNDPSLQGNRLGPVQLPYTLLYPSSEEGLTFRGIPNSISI
Procedure: The target compounds (3a, 3c, 3e–g), intermediates (2a, 2c–g) and the starting material (1) were preliminary evaluated in vitro for their ability to inhibit soybean 15-LOX activity by using spectrophotometric method. Bioactivity screening for soybean 15-LOX inhibition by the target compounds was carried out at 100 μg/mL concentration. […] The bioactivities of the compounds were also compared to tHGA as the parent compound.
In vitro soybean 15-LOX inhibiting activity was measured using spectrophotometric method. In brief, sodium phosphate buffer (160 μL, 100 mM, pH 8.0), test sample (10 μL) and soybean 15-LOX (1.13.11.12) type I-B solution (20 μL, 320 U/well) were mixed and incubated for 15 min at 25 °C. The reaction was then initiated by the addition of the substrate in the form of linoleic acid (10 μL, 0.6 mM) solution. The enzymatic conversion of linoleic acid to form (9Z,11E)-(13S))-13-hydroperoxyoctadeca-9,11-dienoate end product was followed by the change of absorbance measured at 234 nm over a period for 6 min. Test samples and reference standards were dissolved in DMSO. Stock solutions were prepared at concentration 100 μg/mL for pure compounds. […] All reactions were performed in triplicate in a 96-well microtitre plate. The IC50 was calculated from the non-linear regression fitting curve of GraphPad Prism 5. The percentage of inhibition (%) can be calculated from the following formula [17]: [drawing 1] (1)

5-LOX = conditions: cited from earlier work
soybean 15-LOX [2] = target: T1, soybean 15-LOX; parameters: method as in PMID 16644538; conditions: initial finding; read-out: IC50 against soybean 15-LOX (earlier studies); cited from earlier work
[3] = system: airway hyperresponsiveness to methacholine challenge; parameters: method as in PMID 21958738, PMID 22266348; conditions: compared with Zileuton; cited from earlier work
[4] = system: activated macrophage cells; parameters: method as in PMID 16644538; conditions: cited from earlier work
[5] = soybean 15-LOX, read-out: IC50 Value (μM) Mean ± SEM
[6] = isolated from Hypericum empetrifolium, read-out: IC50 against 5-LOX
[7] = rounded values printed in Figure 1, read-out: 15-LOX IC50 (Figure 1)

Molecule	inhibition at 100 µg/mL (soybean 15-LOX [1]; 100 μg/mL, mean ± SEM) [%]	IC50 (soybean 15-LOX [1]; [5]) [µM]	other results
CC(C)(C)C(=O)c1c(O)cc(O)cc1O [2d, 2,2-Dimethyl-1-(2,4,6-trihydroxyphenyl)propane-1-one]	16.9 ± 1.9	> 100	–
3-geranyl-1-(2'-methylbutanoyl)phloroglucinol [compound 4]	–	–	IC50 (5-LOX; [6]): 5.8 µM
CCCCC(=O)c1c(O)cc(O)cc1O [2e, 1-(2,4,6-Trihydroxyphenyl)pentan-1-one]	–	–	IC50 (soybean 15-LOX [1]): > 100 µM; inhibition at 100 µg/mL (soybean 15-LOX [1]): 24.5 ± 3.2%
O=C(c1c(O)cc(O)cc1O)C1CCCCC1 [2f, Cyclohexyl(2,4,6-trihydroxyphenyl)methanone]	17.5 ± 3	> 100	–
CCCCC(=O)c1c(O)cc(O)c(C/C=C(\C)CCC=C(C)C)c1O [3e, (E)-1-(3-(3,7-Dimethylocta-2,6-dienyl)-2,4,6-trihydroxyphenyl)pentan-1-one]	90.3 ± 4.4	10.3 ± 1.5	–
CCC(=O)c1c(O)cc(O)cc1O [2c, 1-(2,4,6-Trihydroxyphenyl)propan-1-one]	–	> 100	% Inhibition (100 μg/mL) (soybean 15-LOX [1]; 100 μg/mL, mean ± SEM): did not exhibit any anti-inflammatory activity
CC(C)C(=O)c1c(O)cc(O)cc1O [2a, 2-Methyl-1-(2,4,6-trihydroxyphenyl)propan-1-one]	19.4 ± 5	> 100	–
CC(C)=CCC/C(C)=C/Cc1c(O)cc(O)c(C(=O)C2CCCCC2)c1O [3f, (E)-Cyclohexyl (3-(3,7-dimethylocta-2,6-dienyl)-2,4,6-trihydroxyphenyl)-methanone]	88.8 ± 5.9	26.3 ± 1.3	–
CC(C)=CCC/C(C)=C/Cc1c(O)cc(O)c(C(=O)/C=C/c2ccccc2)c1O [3g, (E)-1-(3-((E)-3,7-Dimethylocta-2,6-dienyl)-2,4,6-trihydroxyphenyl)-3-phenylprop-2-en-1-one]	90.8 ± 7.6	15.2 ± 1.2	–
CC(=O)c1c(O)cc(O)c(C/C=C(\C)CCC=C(C)C)c1O [tHGA, 2,4,6-trihydroxy-3-geranylacetophenone]	94.3 ± 3.4	23.6 ± 1.7	IC50 (soybean 15-LOX [1]; [7]): 23 µM; IC50 (soybean 15-LOX [2]): 20 µM; IC50 (5-LOX; Figure 1, read-out: 5-LOX IC50): 0.42 µM; efficacy in acute murine asthma model (airway hyperresponsiveness, cellular infiltration, cytokines, cysLT, IgE) [3]: as effective as Zileuton; inhibition of cysteinyl leukotriene secretion [4]: dose-dependent inhibition
O=C(/C=C/c1ccccc1)c1c(O)cc(O)cc1O [2g, (E)-3-Phenyl-1-(2,4,6-trihydroxyphenyl)prop-2-en-1-one]	–	> 100	% Inhibition (100 μg/mL) (soybean 15-LOX [1]; 100 μg/mL, mean ± SEM): did not exhibit any anti-inflammatory activity
CCC(=O)c1c(O)cc(O)c(C/C=C(\C)CCC=C(C)C)c1O [3c, (E)-1-(3-(3,7-Dimethylocta-2,6-dienyl)-2,4,6-trihydroxyphenyl)propan-1-one]	94.4 ± 3	12.3 ± 0.6	–
CC(C)=CCC/C(C)=C/Cc1c(O)cc(O)c(C(=O)C(C)C)c1O [3a, 3-Geranyl-1-(2'-methylpropanoyl)phloroglucinol]	90.3 ± 4.1	27.6 ± 3.6	IC50 (soybean 15-LOX [1]; [7]): 27 µM; IC50 (5-LOX; [6]): 2.2 µM
Oc1cc(O)cc(O)c1 [compound 1, phloroglucinol]	23.2 ± 2.2	> 100	–
